# Source: US5462927A, “Peptides aiding nerve regeneration” (The Administrators of the Tulane Educational Fund, priority 1992, dated 1995)
# Where two headings read alike, the source gives them in different places. Square brackets hold non-standard residues; d marks the D form. Peptide text beside a SMILES is read from it.
# Experiments:
# Assay type in all cases: in vivo, rat
# [1] = test system: crushed peroneal nerve; endplates of the EDL; assay: Endplate morphology of EDL muscle after peroneal nerve crush (silver-cholinesterase stain)
# Procedure: (§1) The effect of BIM-22015 regeneration of the crushed peroneal nerve in the rat was assessed using both morphological and physiological studies, as follows. Both locomotor pattern and endplate morphology during the early stages of crushed nerve regeneration were assessed after treatment with BIM-220150 Adult Sprague-Dawley male rats (Taconic Farms) were maintained at 25° C. on a 12 hour light and a 12 hour dark cycle and were supplied with standard rat chow and water ad lib. All surgery was performed under anesthesia with 8% chlorohydrate (0.6 ml/100 g I.P.). Denervation was accomplished using a #5 Dumont forceps with a uniformly filed tip to crush the peroneal nerve. This crush produced a 1 mm wide lesion just proximal to the EDL (extention digitarum longus) muscle. The wound was closed with surgical staples. Following surgery, the animal was immediately administered saline or BIM-22015 in one of the following dosages: (1) 0.9% saline, (2) 10.0 ug BIM-22015, (3) 5.0 ug BIM-22015, (3) 1.0 ug BIM-22015, or (4) 0.1 ug BIM-22015 (per animal). Administration continued once every 48 hours for 5 days; on day 5, the rats were killed and tissues taken for morphological analysis. All injections and surgeries occurred between 10:00 and 12:00 noon.
# Morphological studies of crushed nerve regeneration were performed as follows. On day 5, the rats were anesthetized with 8% chlorohydrate (0.6 ml/100 g IP) before surgery. The animal was placed ventral side down and a skin incision was made on the hindlimb from the lateral epicondyle of the femur to the lateral malleolus in the ankle. The extensor digitorium longus muscle (EDL) was then carefully exposed from its surrounding connective tissue and extreme care taken to preserve the blood supply. The EDL is a heterogenous muscle consisting of both fast white muscle fibers and slow red muscle fibers. It is classified as a fast muscle based upon its isometric twitch parameters. The origin of the EDL is the epicondyle of the femur to the distal tendon which divides into four parts with insertions into the third phalange base of the second to the fifth digits. It is innervated by the peroneal nerve and its blood is supplied by the anterior tibial artery. The muscle was prepared for staining as follows.
# The silver-cholinesterase method of staining of Pecot-Dechavssine et al. (1979 Stain. Technol. 54:25) was used to stain the endplates, or neuromuscular junctions, of the EDL. Briefly, the muscle was fixed in situ by 1% neutral formalin in normal Ringer's solution. The muscle was then excised and placed in fresh 1% neutral formalin solution for extra 3-4 minutes. The endplates were localized with the stain described by Karnovsky et al. (1964, J. Hist. Chem. Cytochem. 12:219) for 7-15 minutes under visual control. After localization, the EDL was soaked in 5% neutral formalin solution for 20 minutes, then washed in Triton X-100 detergent for 1 hour. After the detergent step, the EDL was fixed in 80% ethanol solution for 1 hour. Finally, the endplates were impregnated with silver using 0.5% protargol solution overnight (12-30 hrs., at 37° C.).
# The following day, the excess silver was reduced using a Bodian developer for 18 minutes. The muscle was rinsed in distilled water, finely teased, and mounted using a glycoglyerol mounting gel.
# The endplates were observed using Olympus BH series binocular microscope at a magnification of 100× using an oil immersion objective lens. A low light sensitive video camera mounted on top of the Olympus projected the slide onto a black and white monitor. A Bioquant image digitizer with a manual optic mouse was used to determine the following parameters: (1) endplate […], (2) endplate area, (3) endplate internal branching, and (4) muscle fiber diameter. The Bioquant statistical package was used to determine statistical differences, and the data are expressed as means and standard error of the mean. The Student's t-test and the ANOVA statistical tests were performed. […]
# crushed peroneal nerve = assay: Walking test (locomotor pattern, toespread) after peroneal nerve crush
# Procedure: as §1
# Locomotor pattern was tested by measuring the walking pattern of the animal. The animal was allowed to walk up a 20° inclined platform. The track was well-lit by fluorescent tubes and a dark box was placed at the end of the track. This dark and light differences was used to entice the animal to walk up the track. […] The distance between the first and fifth digit was determined using a Manostat mechanical caliper (type 6911) with accuracy of ±0.005 mm0 The contralateral foot was used as a control to negate the size differences in individual animals. The Student T test was used to determine the statistical differences, and data were expressed as means of the six sharpest toespreads and the standard error of the mean (using 95% confidence formula), standard deviation, and variances.
# [2] = test system: sectioned sciatic nerve; common extensor muscle of the fingers; conditions: for Muscle Tetnus: Fatigue / Muscle Tetnus: Muscle Strength / Muscle Tetnus: Muscle Strength Normalized to Muscle Weight / Muscle Tetnus: Speed of Contraction / Muscle Tetnus: Speed of Relaxation / Tetanic Strength/Single Pulse Strength: 35d. p.o.p.
# [3] = BIM 0.1 μG per animal every 48 hours, day 5, A = p < 0.025
# [4] = BIM 0.1 μG per animal every 48 hours, day 5, A = p < 0.025, listed as BIM
# [5] = BIM 1.0 μG per animal every 48 hours, day 5
# [6] = BIM 5.0 μG per animal every 48 hours, day 5
# [7] = BIM 10.0 μG per animal every 48 hours, day 5
# [8] = Group 3 (topical in tissucol, lower dose)
# [9] = Group 4 (s.c. 5ug.kg.day for 18 days)
smiles,measurement,setting,value
"C[C@@H](N)C(=O)N[C@@H](CCC(N)=O)C(=O)N[C@@H](Cc1ccc(O)cc1)C(=O)N[C@@H](Cc1ccccc1)C(=O)N[C@@H](CCCNC(=N)N)C(=O)N[C@@H](Cc1c[nH]c2ccccc12)C(=O)NCC(N)=O [BIM-22015, D--Ala--Gln--Tyr--Phe--Arg--Trp--Gly--NH2] (H-[dA]QYFRWG-NH2)",Endplate Morphology: Muscle Fiber Diameter,"[1]; BIM 0.1 μG per animal every 48 hours, day 5",63.6(2.72)
same,Endplate Morphology: Internal Branching,[1]; [3],significant increase
same,Endplate Morphology: Perimeter,[1]; [3],significant increase
same,Endplate Morphology: Internal Branching,[1]; [4],260.5(39.2)
same,Endplate Morphology: Perimeter,[1]; [4],244.3(8.63)
same,Endplate Morphology: Internal Branching,[1]; [5],201.6(14.2)
same,Endplate Morphology: Perimeter,[1]; [5],231.7(5.22)
same,Endplate Morphology: Muscle Fiber Diameter,"[1]; BIM 1.0 μG per animal every 48 hours, day 5, C = p < 0.005",high muscle hypertrophy
same,Endplate Morphology: Muscle Fiber Diameter,"[1]; BIM 1.0 μG per animal every 48 hours, day 5, C = p < 0.005, listed as BIM",76.9(1.70)
same,Endplate Morphology: Internal Branching,[1]; [6],220.2(18.7)
same,Endplate Morphology: Muscle Fiber Diameter,[1]; [6],74.2(2.35)
same,Endplate Morphology: Perimeter,"[1]; BIM 5.0 μG per animal every 48 hours, day 5, B = p < 0.050",significant increase
same,Endplate Morphology: Perimeter,"[1]; BIM 5.0 μG per animal every 48 hours, day 5, B = p < 0.050, listed as BIM",204.2(5.98)
same,Endplate Morphology: Internal Branching,[1]; [7],173.2(14.6)
same,Endplate Morphology: Perimeter,[1]; [7],231.7(12.2)
same,Endplate Morphology: Muscle Fiber Diameter,"[1]; BIM 10.0 μG per animal every 48 hours, day 5, C = p < 0.005",high muscle hypertrophy
same,Endplate Morphology: Muscle Fiber Diameter,"[1]; BIM 10.0 μG per animal every 48 hours, day 5, C = p < 0.005, listed as BIM",82.8(3.74)
same,recovery rate of locomotion (walking test),"crushed peroneal nerve; 0.1 μg per animal, once every 48 hours, days 3-5 after surgery, not statistically significant",very consistent upward recovery rate
same,optimal dosage (walking test),crushed peroneal nerve; dosages 0.1-10.0 ug per animal compared,0.1 µg
same,recovery rate of locomotion (walking test),crushed peroneal nerve; the other dosages (above 0.1 μg) vs saline control,outperformed the saline control animal but only by a slight margin
same,Muscle Tetnus: Fatigue,[2]; Group 2 (topical in tissucol),"73,80%"
same,Muscle Tetnus: Muscle Strength,[2]; Group 2 (topical in tissucol),"61,83 g"
same,Muscle Tetnus: Muscle Strength Normalized to Muscle Weight,[2]; Group 2 (topical in tissucol),"0,91 g/ug"
same,Muscle Tetnus: Speed of Contraction,[2]; Group 2 (topical in tissucol),2409 g/ms
same,Muscle Tetnus: Speed of Relaxation,[2]; Group 2 (topical in tissucol),2034 g/ms
same,Tetanic Strength/Single Pulse Strength,[2]; Group 2 (topical in tissucol),"307,50%"
same,Muscle Tetnus: Fatigue,[2]; [8],"75,55%"
same,Muscle Tetnus: Muscle Strength,[2]; [8],"51,55 g"
same,Muscle Tetnus: Muscle Strength Normalized to Muscle Weight,[2]; [8],"0,84 g/ug"
same,Muscle Tetnus: Speed of Contraction,[2]; [8],1737 g/ms
same,Muscle Tetnus: Speed of Relaxation,[2]; [8],884 g/ms
same,Tetanic Strength/Single Pulse Strength,[2]; [8],"343,00%"
same,Muscle Tetnus: Fatigue,[2]; [9],"72,12%"
same,Muscle Tetnus: Speed of Contraction,[2]; [9],5507 g/ms
same,Muscle Tetnus: Speed of Relaxation,[2]; [9],4226 g/ms
same,Tetanic Strength/Single Pulse Strength,[2]; [9],"347,12%"
same,fatigability of the muscle,"[2]; rat, in vivo",no effect
same,"improvement of muscle strength over control group 1 (column 2, Table 3)","[2]; rat, in vivo, sc",30%
